Test results reported in PubChem BioAssay AID248 (DTP/NCI, 2004).
Toxic doses and inconclusive results are not listed. Rule as the data show it: active = T/C of 150% or more; inactive = T/C below 125%.

Tested on: L1210 leukemia ip in BDF1 mice, survival T/C
Test: NCI In Vivo Anticancer Drug Screen. Data for tumor model L1210 Leukemia (intraperitoneal) in B6D2F1 (BDF1) mice
Settings: endpoint: mean survival time, higher = longer survival
Outline: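 Value reflects the ratio of survival in compound-treated mice to survival in vehicle-treated controls, with both groups carrying the same transplanted tumor.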

[1] = dose: 100.0 mg/kg/injection, schedule: Q01DX001 (ip), vehicle: saline
[2] = dose: 200.0 mg/kg/injection, schedule: Q01DX001 (ip), vehicle: saline
[3] = dose: 400.0 mg/kg/injection, schedule: Q01DX001 (ip), vehicle: saline
[4] = dose: 100.0 mg/kg/injection, schedule: Q04DX003 (ip), vehicle: acetone
[5] = dose: 200.0 mg/kg/injection, schedule: Q04DX003 (ip), vehicle: acetone
[6] = dose: 100.0 mg/kg/injection, schedule: Q04DX003 (ip), vehicle: Klucel (hydroxypropylcellulose) (HPC)
[7] = dose: 200.0 mg/kg/injection, schedule: Q04DX003 (ip), vehicle: Klucel (hydroxypropylcellulose) (HPC)
[8] = dose: 400.0 mg/kg/injection, schedule: Q04DX003 (ip), vehicle: Klucel (hydroxypropylcellulose) (HPC)
[9] = dose: 100.0 mg/kg/injection, schedule: Q01DX009 (ip), vehicle: Klucel (hydroxypropylcellulose) (HPC)
[10] = dose: 200.0 mg/kg/injection, schedule: Q01DX009 (ip), vehicle: Klucel (hydroxypropylcellulose) (HPC)
[11] = dose: 400.0 mg/kg/injection, schedule: Q01DX009 (ip), vehicle: Klucel (hydroxypropylcellulose) (HPC)

Measured: T/C

NC(=S)N/N=C/c1ccc[nH]1
inactive: dose: 100.0 mg/kg/injection, schedule: Q01DX001 (ip), vehicle: saline with Tween-80 93 % of control | dose: 200.0 mg/kg/injection, schedule: Q01DX001 (ip), vehicle: saline with Tween-80 98 % of control

Nc1cccnc1NCC(O)c1ccccc1 (configuration not stated)
inactive: [1] 103 % of control | [2] 97 % of control

Nc1cc(S(=O)(=O)O)cc2ccccc12
inactive: [1] 92 % of control | [2] 92 % of control | [3] 87 % of control

O=c1[nH]c(=O)c2n[nH]nc2[nH]1
inactive: dose: 1.0 mg/kg/injection, schedule: Q01DX009 (ip), vehicle: saline 103 % of control | dose: 2.0 mg/kg/injection, schedule: Q01DX009 (ip), vehicle: saline 93 % of control | dose: 4.0 mg/kg/injection, schedule: Q01DX009 (ip), vehicle: saline 95 % of control | dose: 8.0 mg/kg/injection, schedule: Q01DX009 (ip), vehicle: saline 103 % of control | dose: 16.0 mg/kg/injection, schedule: Q01DX009 (ip), vehicle: saline 101 % of control | dose: 16.0 mg/kg/injection, schedule: Q01DX015 (ip), vehicle: carboxymethylcellulose (CMC) 88 % of control | dose: 75.0 mg/kg/injection, schedule: Q01DX009 (ip), vehicle: saline 110 % of control | dose: 100.0 mg/kg/injection, schedule: Q01DX001 (ip), vehicle: carboxymethylcellulose (CMC) 96 % of control | dose: 115.0 mg/kg/injection, schedule: Q01DX009 (ip), vehicle: saline 107 % of control | dose: 125.0 mg/kg/injection, schedule: Q01DX015 (ip), vehicle: carboxymethylcellulose (CMC) 92 % of control | dose: 170.0 mg/kg/injection, schedule: Q01DX009 (ip), vehicle: saline 98 % of control | dose: 200.0 mg/kg/injection, schedule: Q01DX001 (ip), vehicle: carboxymethylcellulose (CMC) 102 % of control | dose: 255.0 mg/kg/injection, schedule: Q01DX009 (ip), vehicle: saline 97 % of control | dose: 385.0 mg/kg/injection, schedule: Q01DX009 (ip), vehicle: saline 105 % of control | dose: 400.0 mg/kg/injection, schedule: Q01DX001 (ip), vehicle: carboxymethylcellulose (CMC) 91 % of control

CN1N=Nc2cccc3cccc1c23
inactive: dose: 50.0 mg/kg/injection, schedule: Q01DX009 (ip), vehicle: acetone 112 % of control | dose: 100.0 mg/kg/injection, schedule: Q01DX009 (ip), vehicle: acetone 107 % of control | [4] 94 % of control | [5] 87 % of control

CCCCCCCCSP(=S)(N1CC1)N1CC1
inactive: dose: 50.0 mg/kg/injection, schedule: Q01DX001 (ip), vehicle: saline 102 % of control | [1] 108 % of control | [2] 98 % of control | [3] 96 % of control

O=C(O)c1ccc2cc(O)ccc2c1
inactive: dose: 100.0 mg/kg/injection, schedule: Q04DX003 (ip), vehicle: saline 92 % of control | dose: 200.0 mg/kg/injection, schedule: Q04DX003 (ip), vehicle: saline 98 % of control | dose: 400.0 mg/kg/injection, schedule: Q04DX003 (ip), vehicle: saline 97 % of control

CN(C)c1ccc(CC2Cc3ccccc3C2=O)cc1 (configuration not stated)
inactive: dose: 100.0 mg/kg/injection, schedule: Q01DX009 (ip), vehicle: other 96 % of control | [6] 117 % of control | dose: 200.0 mg/kg/injection, schedule: Q01DX009 (ip), vehicle: other 89 % of control | [7] 103 % of control | dose: 400.0 mg/kg/injection, schedule: Q01DX009 (ip), vehicle: other 91 % of control | [8] 98 % of control

CCNC(=O)c1cc(NC(=O)c2ccc(C(=O)Nc3cc(C(=O)NCC)cc(C4=NCCN4)c3)cc2)cc(C2=NCCN2)c1
inactive: dose: 14.25 mg/kg/injection, schedule: Q01DX015 (ip), vehicle: water 101 % of control | dose: 28.5 mg/kg/injection, schedule: Q01DX015 (ip), vehicle: water 98 % of control | dose: 57.0 mg/kg/injection, schedule: Q01DX015 (ip), vehicle: water 116 % of control

COc1cc2[nH]c(=O)c3cccn3c(=O)c2cc1OC
inactive: dose: 50.0 mg/kg/injection, schedule: Q04DX002 (ip), vehicle: other 102 % of control | dose: 100.0 mg/kg/injection, schedule: Q04DX002 (ip), vehicle: other 105 % of control | dose: 200.0 mg/kg/injection, schedule: Q04DX002 (ip), vehicle: other 94 % of control

Cc1ccc(NC(=O)OCCN2CCNC2=S)c([N+](=O)[O-])c1
inactive: dose: 50.0 mg/kg/injection, schedule: Q01DX009 (ip), vehicle: Klucel (hydroxypropylcellulose) (HPC) 95 % of control | [9] 87 % of control | [6] 93 % of control | [10] 91 % of control | [7] 91 % of control | [8] 96 % of control

O=C(NCCCCCCCCCCNC(=O)Nc1ccc(C2=NCCCN2)cc1)Nc1ccc(C2=NCCCN2)cc1
inactive: dose: 3.12 mg/kg/injection, schedule: Q01DX Z (ip), vehicle: carboxymethylcellulose (CMC) 108 % of control | dose: 6.25 mg/kg/injection, schedule: Q01DX Z (ip), vehicle: carboxymethylcellulose (CMC) 111 % of control | dose: 9.5 mg/kg/injection, schedule: Q01DX001 (ip), vehicle: other 101 % of control | dose: 19.0 mg/kg/injection, schedule: Q01DX001 (ip), vehicle: other 110 % of control | dose: 25.0 mg/kg/injection, schedule: Q01DX Z (ip), vehicle: carboxymethylcellulose (CMC) 122 % of control | dose: 38.0 mg/kg/injection, schedule: Q01DX001 (ip), vehicle: other 101 % of control

CCCNC(=O)Nc1cccc(Cl)c1C
inactive: dose: 100.0 mg/kg/injection, schedule: Q01DX009 (ip), vehicle: saline with Tween-80 102 % of control | dose: 100.0 mg/kg/injection, schedule: Q04DX003 (ip), vehicle: saline with Tween-80 101 % of control | dose: 200.0 mg/kg/injection, schedule: Q01DX009 (ip), vehicle: saline with Tween-80 94 % of control | dose: 200.0 mg/kg/injection, schedule: Q04DX003 (ip), vehicle: saline with Tween-80 94 % of control | dose: 400.0 mg/kg/injection, schedule: Q01DX009 (ip), vehicle: saline with Tween-80 100 % of control | dose: 400.0 mg/kg/injection, schedule: Q04DX003 (ip), vehicle: saline with Tween-80 100 % of control

CC(C)(C)C(=O)CC(=O)C(C)(C)C.CC(C)(C)C(=O)CC(=O)C(C)(C)C.CC(C)(C)C(=O)CC(=O)C(C)(C)C.[Sm]
inactive: dose: 100.0 mg/kg/injection, schedule: Q01DX005 (ip), vehicle: saline 112 % of control | dose: 100.0 mg/kg/injection, schedule: Q01DX009 (ip), vehicle: saline 106 % of control | dose: 100.0 mg/kg/injection, schedule: Q04DX002 (ip), vehicle: saline 92 % of control | dose: 200.0 mg/kg/injection, schedule: Q01DX005 (ip), vehicle: saline 109 % of control | dose: 200.0 mg/kg/injection, schedule: Q01DX009 (ip), vehicle: saline 103 % of control | dose: 200.0 mg/kg/injection, schedule: Q04DX002 (ip), vehicle: saline 95 % of control | dose: 400.0 mg/kg/injection, schedule: Q01DX005 (ip), vehicle: saline 98 % of control | dose: 400.0 mg/kg/injection, schedule: Q01DX009 (ip), vehicle: saline 98 % of control | dose: 400.0 mg/kg/injection, schedule: Q04DX002 (ip), vehicle: saline 103 % of control

Clc1cc(I)cc(Cl)c1Cl
inactive: [4] 108 % of control | [5] 103 % of control | dose: 400.0 mg/kg/injection, schedule: Q04DX003 (ip), vehicle: acetone 91 % of control

O=S(=O)(Cc1ccccc1)Nc1cccc(S(=O)(=O)OCc2ccccc2)c1
inactive: dose: 100.0 mg/kg/injection, schedule: Q01DX001 (ip), vehicle: Klucel (hydroxypropylcellulose) (HPC) 102 % of control | [9] 104 % of control | [6] 100 % of control | dose: 200.0 mg/kg/injection, schedule: Q01DX001 (ip), vehicle: Klucel (hydroxypropylcellulose) (HPC) 98 % of control | [10] 95 % of control | [7] 94 % of control | dose: 400.0 mg/kg/injection, schedule: Q01DX001 (ip), vehicle: Klucel (hydroxypropylcellulose) (HPC) 106 % of control | [11] 97 % of control | [8] 92 % of control

CCOc1ccc(/C=N/NC(=O)COCC(=O)N/N=C/c2ccc(OCC)c(OC)c2)cc1OC
inactive: [9] 92 % of control | [10] 87 % of control | [11] 103 % of control
